# Measurements reported in patent US20240358692A1, “TREATMENT OF SCLERODERMA” (Aisa Pharma, Inc., priority 2023, published 2024).
# Test system: participants with SSc-RP
# Assay: Average severity of weekly RP attacks (VAS 0-10)
# Type: in vivo, human
# Conditions: for Average Severity (0-10) of weekly RP attacks, Median / Average Severity (0-10) of weekly RP attacks, Mean / Average severity of weekly RP attacks, Percent Change from Baseline, Mean / Average severity of weekly RP attacks, Change from Baseline, Mean / Average severity of weekly RP attacks, Percent Change from Baseline, Median / Average severity of weekly RP attacks, Change from Baseline, Median: all attacks
# From the text: The absolute change in average severity of weekly RP attacks (VAS 0-10 cm scale) from baseline to the end of each Dosing Period was and will be a secondary outcome variable. The sponsor-developed participant-informed diary will be used to record data. Average severity of weekly RP attacks is defined as the total severity scores of RP attacks divided by total number of RP attacks within the last 7 days of each dosing period. Total severity scores of RP attacks during the last 7 days of screening period divided by the total number of RP attacks will be used as baseline for the analysis of all periods. The variable will be calculated similar to frequency data as before.
# [1] = Pooled Cilnidipine 10 mg and Cilnidipine 10 mg + Tadalafil 5 mg, Excluding Outliers, 1st Baseline RCS subgroup, ITT Part A, last 7 days of dosing period
# [2] = Pooled Cilnidipine 10 mg and Cilnidipine 10 mg + Tadalafil 5 mg, Excluding Outliers, 2nd Baseline RCS subgroup, ITT Part A, last 7 days of dosing period
# [3] = Pooled Cilnidipine 10 mg and Cilnidipine 10 mg + Tadalafil 5 mg, ITT Part A, last 7 days of dosing period
# [4] = Pooled Cilnidipine 10 mg and Cilnidipine 10 mg + Tadalafil 5 mg, Excluding Outliers, by Baseline RCS: second subgroup of Table C-8, ITT Part A
# [5] = Pooled Cilnidipine 10 mg and Cilnidipine 10 mg + Tadalafil 5 mg, by Baseline RCS: second subgroup of Table C-7, ITT Part A
# [6] = Pooled Cilnidipine 20 mg and Cilnidipine 20 mg + Tadalafil 5 mg, 1st Baseline RCS subgroup, ITT Part A, last 7 days of dosing period
# [7] = Pooled Cilnidipine 20 mg and Cilnidipine 20 mg + Tadalafil 5 mg, 2nd Baseline RCS subgroup, ITT Part A, last 7 days of dosing period
# [8] = Pooled Cilnidipine 20 mg and Cilnidipine 20 mg + Tadalafil 5 mg, Excluding Outliers, 1st Baseline RCS subgroup, ITT Part A, last 7 days of dosing period
# [9] = Pooled Cilnidipine 20 mg and Cilnidipine 20 mg + Tadalafil 5 mg, Excluding Outliers, 2nd Baseline RCS subgroup, ITT Part A, last 7 days of dosing period
# [10] = Pooled Cilnidipine 20 mg and Cilnidipine 20 mg + Tadalafil 5 mg, ITT Part A, last 7 days of dosing period
# [11] = Pooled Cilnidipine 20 mg and Cilnidipine 20 mg + Tadalafil 5 mg, Excluding Outliers, by Baseline RCS: first subgroup of Table C-8, ITT Part A
# [12] = Pooled Cilnidipine 20 mg and Cilnidipine 20 mg + Tadalafil 5 mg, by Baseline RCS: first subgroup of Table C-7, ITT Part A
# [13] = Pooled Cilnidipine, 1st Baseline RCS subgroup, ITT Part A, last 7 days of dosing period
# [14] = Pooled Cilnidipine, Excluding Outliers, 1st Baseline RCS subgroup, ITT Part A, last 7 days of dosing period
# [15] = Pooled Cilnidipine, ITT Part A, last 7 days of dosing period
# [16] = Pooled Cilnidipine, Excluding Outliers, ITT Part A
# [17] = Pooled Cilnidipine, Excluding Outliers, by Baseline RCS: first subgroup of Table C-8, ITT Part A
# [18] = Pooled Cilnidipine, by Baseline RCS: first subgroup of Table C-7, ITT Part A
# [19] = Pooled Cilnidipine, excluding outliers, ITT Part A
# [20] = Pooled Cilnidipine, excluding outliers, severity 0-10, ITT Part A
# [21] = Pooled Cilnidipine, severity 0-10, ITT Part A
smiles,measurement,setting,value
COCCOC(=O)C1=C(C)NC(C)=C(C(=O)OC/C=C/c2ccccc2)C1c1cccc([N+](=O)[O-])c1 (centres unmarked) [Cilnidipine],"Average Severity of Weekly Symptomatic RP Attacks, Change from Baseline, Median",[1],−1.22
same,"Average Severity of Weekly Symptomatic RP Attacks, Mean",[1],3.34
same,"Average Severity of Weekly Symptomatic RP Attacks, Median",[1],3.34
same,"Average Severity of Weekly Symptomatic RP Attacks, Percent Change from Baseline, Mean",[1],−20.18%
same,"Average Severity of Weekly Symptomatic RP Attacks, Percent Change from Baseline, Median",[1],−20.18%
same,"Average Severity of Weekly Symptomatic RP Attacks, Change from Baseline, Mean",[2],−1.13
same,"Average Severity of Weekly Symptomatic RP Attacks, Change from Baseline, Median",[2],−1.13
same,"Average Severity of Weekly Symptomatic RP Attacks, Mean",[2],5.23
same,"Average Severity of Weekly Symptomatic RP Attacks, Median",[2],5.23
same,"Average Severity of Weekly Symptomatic RP Attacks, Percent Change from Baseline, Mean",[2],−17.81%
same,"Average Severity of Weekly Symptomatic RP Attacks, Percent Change from Baseline, Median",[2],−17.81%
same,"Average Severity of Weekly RP Attacks (All Attacks), Change from Baseline, Mean",[3],−1.34
same,"Average Severity of Weekly RP Attacks (All Attacks), Change from Baseline, Median",[3],−1.32
same,"Average Severity of Weekly RP Attacks (All Attacks), Mean",[3],3.62
same,"Average Severity of Weekly RP Attacks (All Attacks), Median",[3],3.05
same,"Average Severity of Weekly RP Attacks (All Attacks), Percent Change from Baseline, Mean",[3],−23.02%
same,"Average Severity of Weekly RP Attacks (All Attacks), Percent Change from Baseline, Median",[3],−21.20%
same,"Average Severity (0-10) of weekly RP attacks, Median","Pooled Cilnidipine 10 mg and Cilnidipine 10 mg + Tadalafil 5 mg, Excluding Outliers, ITT Part A",3.05
same,"Average Severity (0-10) of weekly RP attacks, Mean",[4],4.90
same,"Average Severity (0-10) of weekly RP attacks, Median",[4],4.90
same,"Average severity of weekly RP attacks, Percent Change from Baseline, Mean",[4],−21.20%
same,"Average severity of weekly RP attacks, Change from Baseline, Mean","Pooled Cilnidipine 10 mg and Cilnidipine 10 mg + Tadalafil 5 mg, by Baseline RCS: first subgroup of Table C-7, ITT Part A",−1.35
same,"Average Severity (0-10) of weekly RP attacks, Mean",[5],4.90
same,"Average Severity (0-10) of weekly RP attacks, Median",[5],4.90
same,"Average severity of weekly RP attacks, Percent Change from Baseline, Mean",[5],−21.20%
same,"Average severity of weekly RP attacks, Percent Change from Baseline, Median",[5],−21.20%
same,"Average Severity of Weekly Symptomatic RP Attacks, Change from Baseline, Mean",[6],−1.06
same,"Average Severity of Weekly Symptomatic RP Attacks, Change from Baseline, Median",[6],−0.33
same,"Average Severity of Weekly Symptomatic RP Attacks, Mean",[6],2.85
same,"Average Severity of Weekly Symptomatic RP Attacks, Median",[6],2.40
same,"Average Severity of Weekly Symptomatic RP Attacks, Percent Change from Baseline, Mean",[6],−24.28%
same,"Average Severity of Weekly Symptomatic RP Attacks, Percent Change from Baseline, Median",[6],−12.02%
same,"Average Severity of Weekly Symptomatic RP Attacks, Change from Baseline, Mean",[7],−1.79
same,"Average Severity of Weekly Symptomatic RP Attacks, Change from Baseline, Median",[7],−1.79
same,"Average Severity of Weekly Symptomatic RP Attacks, Mean",[7],5.06
same,"Average Severity of Weekly Symptomatic RP Attacks, Median",[7],5.06
same,"Average Severity of Weekly Symptomatic RP Attacks, Percent Change from Baseline, Mean",[7],−26.14%
same,"Average Severity of Weekly Symptomatic RP Attacks, Percent Change from Baseline, Median",[7],−26.14%
same,"Average Severity of Weekly Symptomatic RP Attacks, Change from Baseline, Mean",[8],−1.06
same,"Average Severity of Weekly Symptomatic RP Attacks, Change from Baseline, Median",[8],−0.33
same,"Average Severity of Weekly Symptomatic RP Attacks, Mean",[8],2.85
same,"Average Severity of Weekly Symptomatic RP Attacks, Median",[8],2.40
same,"Average Severity of Weekly Symptomatic RP Attacks, Percent Change from Baseline, Mean",[8],−24.28%
same,"Average Severity of Weekly Symptomatic RP Attacks, Percent Change from Baseline, Median",[8],−12.02%
same,"Average Severity of Weekly Symptomatic RP Attacks, Change from Baseline, Mean",[9],−1.79
same,"Average Severity of Weekly Symptomatic RP Attacks, Change from Baseline, Median",[9],−1.79
same,"Average Severity of Weekly Symptomatic RP Attacks, Mean",[9],5.06
same,"Average Severity of Weekly Symptomatic RP Attacks, Median",[9],5.06
same,"Average Severity of Weekly Symptomatic RP Attacks, Percent Change from Baseline, Mean",[9],−26.14%
same,"Average Severity of Weekly Symptomatic RP Attacks, Percent Change from Baseline, Median",[9],−26.14%
same,"Average Severity of Weekly RP Attacks (All Attacks), Change from Baseline, Mean",[10],−1.02
same,"Average Severity of Weekly RP Attacks (All Attacks), Change from Baseline, Median",[10],−0.96
same,"Average Severity of Weekly RP Attacks (All Attacks), Mean",[10],3.35
same,"Average Severity of Weekly RP Attacks (All Attacks), Median",[10],3.06
same,"Average Severity of Weekly RP Attacks (All Attacks), Percent Change from Baseline, Mean",[10],−21.83%
same,"Average Severity of Weekly RP Attacks (All Attacks), Percent Change from Baseline, Median",[10],−16.40%
same,"Average severity of weekly RP attacks, Change from Baseline, Median","Pooled Cilnidipine 20 mg and Cilnidipine 20 mg + Tadalafil 5 mg, Excluding Outliers, ITT Part A",−0.96
same,"Average Severity (0-10) of weekly RP attacks, Median",[11],2.40
same,"Average severity of weekly RP attacks, Change from Baseline, Mean",[11],−0.84
same,"Average severity of weekly RP attacks, Change from Baseline, Median",[11],−0.39
same,"Average Severity (0-10) of weekly RP attacks, Median",[12],2.40
same,"Average severity of weekly RP attacks, Change from Baseline, Mean",[12],−0.84
same,"Average severity of weekly RP attacks, Change from Baseline, Median",[12],−0.39
same,Severity (change),Pooled Cilnidipine (n = 7),−16%
same,"Average Severity of Weekly Symptomatic RP Attacks, Change from Baseline, Mean",[13],−0.87
same,"Average Severity of Weekly Symptomatic RP Attacks, Change from Baseline, Median",[13],−0.33
same,"Average Severity of Weekly Symptomatic RP Attacks, Mean",[13],2.79
same,"Average Severity of Weekly Symptomatic RP Attacks, Median",[13],2.40
same,"Average Severity of Weekly Symptomatic RP Attacks, Percent Change from Baseline, Mean",[13],−19.22%
same,"Average Severity of Weekly Symptomatic RP Attacks, Percent Change from Baseline, Median",[13],−12.02%
same,"Average Severity of Weekly Symptomatic RP Attacks, Change from Baseline, Mean",[14],−0.87
same,"Average Severity of Weekly Symptomatic RP Attacks, Change from Baseline, Median",[14],−0.33
same,"Average Severity of Weekly Symptomatic RP Attacks, Mean",[14],2.79
same,"Average Severity of Weekly Symptomatic RP Attacks, Median",[14],2.40
same,"Average Severity of Weekly Symptomatic RP Attacks, Percent Change from Baseline, Mean",[14],−19.22%
same,"Average Severity of Weekly Symptomatic RP Attacks, Percent Change from Baseline, Median",[14],−12.02%
same,"Average Severity of Weekly Symptomatic RP Attacks, Percent Change from Baseline, Mean","Pooled Cilnidipine, ITT Part A",−19.22%
same,"Average Severity of Weekly Symptomatic RP Attacks, Percent Change from Baseline, Median","Pooled Cilnidipine, ITT Part A",−12.02%
same,"Average Severity of Weekly RP Attacks (All Attacks), Change from Baseline, Mean",[15],−0.71
same,"Average Severity of Weekly RP Attacks (All Attacks), Change from Baseline, Median",[15],−0.20
same,"Average Severity of Weekly RP Attacks (All Attacks), Mean",[15],2.55
same,"Average Severity of Weekly RP Attacks (All Attacks), Median",[15],2.40
same,"Average Severity of Weekly RP Attacks (All Attacks), Percent Change from Baseline, Mean",[15],−17.99%
same,"Average Severity of Weekly RP Attacks (All Attacks), Percent Change from Baseline, Median",[15],−7.69%
same,"Average Severity (0-10) of weekly RP attacks, Median",[16],2.40
same,"Average severity of weekly RP attacks, Change from Baseline, Mean",[16],−0.71
same,"Average severity of weekly RP attacks, Change from Baseline, Median",[16],−0.20
same,"Average Severity (0-10) of weekly RP attacks, Mean",[17],2.55
same,"Average Severity (0-10) of weekly RP attacks, Median",[17],2.40
same,"Average severity of weekly RP attacks, Change from Baseline, Mean",[17],−0.71
same,"Average severity of weekly RP attacks, Change from Baseline, Median",[17],−0.20
same,"Average severity of weekly RP attacks, Percent Change from Baseline, Mean",[17],−17.99%
same,"Average severity of weekly RP attacks, Percent Change from Baseline, Median",[17],−7.69%
same,"Average Severity (0-10) of weekly RP attacks, Mean",[18],2.55
same,"Average Severity (0-10) of weekly RP attacks, Median",[18],2.40
same,"Average severity of weekly RP attacks, Change from Baseline, Mean",[18],−0.71
same,"Average severity of weekly RP attacks, Change from Baseline, Median",[18],−0.20
same,"Average severity of weekly RP attacks, Percent Change from Baseline, Mean",[18],−17.99%
same,"Average severity of weekly RP attacks, Percent Change from Baseline, Median",[18],−7.69%
same,"Average Severity of Weekly Symptomatic RP Attacks, Percent Change from Baseline, Mean",[19],−19.22%
same,"Average Severity of Weekly Symptomatic RP Attacks, Percent Change from Baseline, Median",[19],−12.02%
same,"Average Severity of Weekly Symptomatic RP Attacks, Change from Baseline, Mean",[20],−0.87
same,"Average Severity of Weekly Symptomatic RP Attacks, Change from Baseline, Median",[20],−0.33
same,"Average Severity of Weekly Symptomatic RP Attacks, Mean",[20],2.79
same,"Average Severity of Weekly Symptomatic RP Attacks, Median",[20],2.40
same,"Average Severity of Weekly Symptomatic RP Attacks, Change from Baseline, Mean",[21],−0.87
same,"Average Severity of Weekly Symptomatic RP Attacks, Change from Baseline, Median",[21],−0.33
same,"Average Severity of Weekly Symptomatic RP Attacks, Mean",[21],2.79
same,"Average Severity of Weekly Symptomatic RP Attacks, Median",[21],2.40
same,"severity of attacks, dose response",cilnidipine monotherapy 10 mg vs 20 mg (n=3),20 mg reducing severity more than 10 mg
